Key:
[1] = system: human fibroblasts; test: 3H-thymidine incorporation, proliferative response of human fibroblasts; assay type: cell-based; conditions: for 3H-Thymidine Incorporation Into Fibroblasts: Table 4 (human fibroblasts per Example 4), 48 hours
Description: (§1) Primary human osteoblasts were trypsinized and cell counts determined. Cells were resuspended at a concentration of 0.5×10^5 cells/ml in growth medium [Dulbeccos Modified Eagles Medium (DMEM) 10% Fetal Bovine Serum (FBS), 100 units Penicillin and 50 μg/ml Streptomycin]. A 100 μl aliquot of cells was added to each well in a 96 well dish. Cells were allowed to adhere for 24 hours and then refed with DMEM containing 0.5% FBS for 24 hours. Thereafter, several concentrations (10, 100, 500 μg/ml final concentration) of peptide in DMEM containing 0.5% FBS were added to different wells in quadruplicate. These plates were incubated in a cell culture incubator at 37° C. 5% CO2 for 48 hours. Subsequently, 0.1 μCi of ^3H-thymidine was added to each well, and incubated at 37° C. for an additional 3 hours prior to harvest. Cells were lysed and the lysate was placed in scintillation fluid and the amount of thymidine incorporated was determined by beta counting (in Counts Per Minute, or CPM).
(§2) The effect of the peptide […] (SEQ. ID NO: 1) on stimulation of human fibroblast proliferation was assessed by thymidine incorporation as described above. The experiments were set up as detailed in Example 1. Following serum starvation, cells were treated with the peptide at concentration of 10, 100, and 500 μg/ml of peptide in DMEM containing 0.5% FBS. These plates were incubated at 37° C. in 5% CO2 for 48 hours and processed for analysis as described in Example 1.

[2] = Elman's test (DTNB) for free sulfhydryl groups, with UV measurement; assay type: physicochemical; conditions: for Free Sulfhydryl Group Content, Optical density At 412 nM: 0.5 mM peptide in Elman's reaction buffer pH 8.0
Description: (§3) The formation of inter- or intra-chain disulfide bonds was determined by Elman's test and a reverse phase HPLC method. The peptide represented by SEQ. ID NO: 1 was dissolved in 50 mM sodium acetate, pH 5.2, containing 1 mM EDTA to a stock solution of 10 mM. The stock solution was further diluted with either 50 mM sodium acetate buffer or Elman's reaction buffer ([…], pH 8.0, containing 1 mM EDTA) to a final concentration of 0.5 mM. Samples prepared with sodium acetate buffer were kept at 5° C. for HPLC analysis later.
The reagent used in Elman's test is 5,5′-dithio-bis-(2-nitrobenzoic acid), also know as DTNB. […] Sulfhydryl groups can be quantitated in a sample by comparison to a standard curve prepared with know concentrations of sulfhydryl-containing compound such as cysteine. The measurement of free sulfhydryl group was performed when the peptide was freshly prepared and after 24 hours incubation at 37° C. The incubation step was designed to mimic the cell culture conditions and to create conditions for inter- or intra-chain disulfide bond formations. To examine the integrity of the peptide after incubation, a UV measurement was performed when the peptide (SEQ. ID NO: 1) was freshly prepared and after 24 hours incubation.

[3] = system: human chondrocytes; test: 3H-thymidine incorporation, proliferative response of human chondrocytes; assay type: cell-based; conditions: for 3H-Thymidine Incorporation Into Chondrocytes: Table 3, 48 hours
Description: as §1
as §2, with “chondrocyte” for “fibroblast”

[4] = system: Primary human osteoblasts; test: 3H-thymidine incorporation, proliferative response of human osteoblasts; assay type: cell-based
Description: as §1
To help determine a maximal stimulation of cell proliferation, the study was repeated with concentrations of 10, 50, 100, and 200 μg/ml final concentration) of the peptide represented by SEQ. ID NO: 1 in DMEM containing 0.5% FBS.
The experiments were set up as described for Example 1, with proliferation assessed by measurement of thymidine incorporation into newly synthesized DNA. […] These plates were incubated at 37° C. in 5% CO2 for 48 hours and processed for analysis as mentioned in Example 1.

[5] = Reverse phase HPLC for peptide integrity after disulfide bond formation; assay type: physicochemical
Description: as §3
To determine the integrity of the peptide of SEQ. ID NO: 1 after disulfide bond formations, samples in sodium acetate buffer (1G1) and in Elman's reaction buffer (1G2) were subjected to reverse phase HPLC after a 24 hour incubation at 37° C. In particular, a 0–80% acetonitrile gradient in 0.1% TFA was used over 15 minutes at a flow rate of 2 ml/min on a Vydac C-18 column. Detection was at 214 nm.

[6] = after 24 hrs incubation at 37° C.

CGGGRWCG (synthesized primer) [ID NO: 1, synthesized by Invitrogen Corporation]
stimulation of proliferation of human fibroblasts ([1]; 10, 100, and 500 μg/ml): did not stimulate proliferation
3H-Thymidine Incorporation Into Fibroblasts ([1]; peptide 10 μg/ml): 1281 +/− 86 CPM
3H-Thymidine Incorporation Into Fibroblasts ([1]; peptide 100 μg/ml): 1103 +/− 76 CPM
3H-Thymidine Incorporation Into Fibroblasts ([1]; peptide 500 μg/m1): 1088 +/− 64 CPM
free sulfhydryl group content after incubation ([2]; after 24 hour incubation at 37° C., 412 nM): reduced significantly
Optical density At 280 nM (UV measurement, integrity of the peptide) [2, 6]: 2.037
Free Sulfhydryl Group Content, Optical density At 412 nM [2, 6]: 0.011
change of absorbance at 280 nM ([2]; fresh vs 24 hour old samples): did not change
Optical density At 280 nM (UV measurement, integrity of the peptide) ([2]; freshly prepared): 2.127
Free Sulfhydryl Group Content, Optical density At 412 nM ([2]; freshly prepared): 0.71
stimulation of proliferation of human chondrocytes ([3]; 10, 100, and 500 μg/ml): did not stimulate proliferation
3H-Thymidine Incorporation Into Chondrocytes ([3]; peptide 10 μg/ml): 803 +/− 96 CPM
3H-Thymidine Incorporation Into Chondrocytes ([3]; peptide 100 μg/ml): 726 +/− 88 CPM
3H-Thymidine Incorporation Into Chondrocytes ([3]; peptide 500 μg/ml): 640 +/− 80 CPM
3H-Thymidine Incorporation Into Osteoblasts ([4]; Table 1A, peptide 0 μg/ml, DMEM 0.5% FBS, 48 hours): 591 +/− 39 CPM
stimulation of proliferation as compared to controls treated with 0.1% BSA ([4]; Table 1A, peptide 100 μg/ml): 2.5 fold
3H-Thymidine Incorporation Into Osteoblasts ([4]; Table 1A, peptide 100 μg/ml, DMEM 0.5% FBS, 48 hours): 1228 +/− 157 CPM
stimulation of osteoblast proliferation ([4]; Table 1A, peptide 500 μg/ml): no statistical stimulation
3H-Thymidine Incorporation Into Osteoblasts ([4]; Table 1A, peptide 500 μg/ml, DMEM 0.5% FBS, 48 hours): 629 +/− 46 CPM
3H-Thymidine Incorporation Into Osteoblasts ([4]; Table 1B (repeat study), peptide 10 μg/ml): 807 +/− 45 CPM
3H-Thymidine Incorporation Into Osteoblasts ([4]; Table 1B (repeat study), peptide 50 μg/ml): 948 +/− 62 CPM
3H-Thymidine Incorporation Into Osteoblasts ([4]; Table 1B (repeat study), peptide 100 μg/ml): 1150 +/− 37 CPM
3H-Thymidine Incorporation Into Osteoblasts ([4]; Table 1B (repeat study), peptide 200 μg/ml): 1565 +/− 98 CPM
concentration of maximal stimulation of proliferation (dose dependant) ([4]; Table 1B, 10-200 μg/ml tested): 200 µg/mL
stimulation of proliferation relative to cells cultured in the presence of serum ([4]; Table 1B, maximal stimulation at 200 μg/ml vs 10% FBS): approximately 75%
3H-Thymidine Incorporation Into Osteoblasts ([4]; Table 2 (Example 2), peptide 200 ug/ml): 3446 +/− 333 CPM
stimulation of osteoblast proliferation (fold, words) ([4]; Table 2, peptide 200 ug/ml): two fold
disulfide structure formed, reverse phase HPLC ([5]; Elman's reaction buffer pH 8.0 (1G2), 24 hour incubation at 37° C.): formed intra-chain disulfide bonds (ring structure) and not a higher lever structure
integrity of the peptide by reverse phase HPLC ([5]; after 24 hours incubation at 37° C.): intact
sulfhydryl state, reverse phase HPLC ([5]; sodium acetate buffer pH 5.2 (1G1), 24 hours incubation): predominately contained free sulfhydryl groups
